{"source": "patent US20100093675A1", "about": "“NOVEL METHOD” (BIOXELL S.P.A., priority 2006, published 2010)", "key": {"Balb/c mice": {"tested_on": "Balb/c mice", "assay": "Mouse caecum abrasion model of post surgical adhesion formation", "type": "in vivo", "details": "for total adhesions score: sacrifice day seven, vs vehicle; for adhesion score / length (mm) of caecum adherent to peritoneum, difference to vehicle groups: Compound X 200, Compound Y 30, calcitriol 0.6 ug/kg i.p. once, then orally at MTD (100, 3, 0.3 ug/kg) once a day for 4 days, day seven, Anova with Bonferroni, FIG. 3", "source_text": "Female BALB/c mice (20 g; Charles River Breeding Laboratories) were used for all experiments. All mice were maintained under standard conditions of food and water ad libitum on a 12-hour day-night cycle according to Home Office regulations.\nAdhesions were induced in mice with a protocol based on a procedure developed by Sulaiman and colleagues (Sulaiman H, Gabella G, Davis C, Mutsaers S E, Boulos P, Laurent G J, Herrick S E: Growth of nerve fibres into murine peritoneal adhesions. J Pathol 2000, 192:396-403). Briefly, mice were anesthetized with a mixture of inhaled isoflurane and oxygen, and a midline incision was made through the abdominal wall and peritoneum. A standard site (6 mm diameter and 1 mm depth), midway and 0.5 cm lateral to the midline incision on the left abdominal wall, was injured scraping 30 times with a scalpel blade. The cecum was isolated and scraped 30 times on its lateral aspect with a scalpel blade, after first irrigating with 0.9% sterile saline. The two injured surfaces were then apposed by placing two horizontal mattress sutures (8/0 Ethilon; Ethicon, Berkshire, UK) 1 cm apart. The midline incision was closed in two layers; the linea-alba with a continuous suture, and then the skin using michel suture clips (Aesculap, Tuttlingen Germany). This model was validated using leuprolide acetate, a GnRH agonist (Enantone, Takeida) injected at 1 mg/kg one week before surgery. The animals were sacrified at day 7 as usual and adhesion score reduction was evaluated.\nTo assess the effects of vitamin D compounds on adhesion formation, peritoneal adhesions were induced in 10 animals that were randomized to experimental groups receiving the vitamin D compound or vehicle. In the initial study, animals in the experimental group (n=5) received 0.1-ml i.p. injection of 200 ug/kg of Compound X in saline solution or vehicle (saline solution) only (n=5), at the surgery day then 4 days of daily oral administration (Compound X 100 ug/kg in miglyol or miglyol vehicle only). A second experiment was done with one group of animals (n=5) receiving 0.1-ml i.p. injection of 6 ug/kg of Compound Y in saline solution at the surgery day and then 4 days of daily oral administration (3 ug/kg in miglyol). Control animals (n=5) were similarly administered with vehicle alone (miglyol or saline solution according to the route of administration). The third experiment was designed to compare the effect of calcitriol. Briefly, 28 animals were operated and randomized four different groups: vehicle (miglyol or saline solution according to the route of administration) (n=13), Compound X i.p. […] 30 ug/kg plus three days oral administration at MTD (n=5), calcitriol i.p. […] All animals were killed at 7 days, and the adhesions were quantified in a blinded fashion. Each animal received an adhesion score based on the number, length and strength of adhesions formed. Millimetres of caecum adherent to peritoneum was also measured."}, "[1]": {"assay": "Colorimetric serum calcium level in animals of the adhesion experiment (FIG. 4)", "type": "in vivo, mouse", "details": "animals of the FIG. 3 experiment", "description": "(§1) Serum calcium was measured with Calcium Dry-fast kit (Sentinel diagnostics, Milan, Italy) with minor modification over the standard method: 10 ul serum, standard solution, or water are added to 100 ul of reconstituted assay reagent in a 96 well plate and incubated 5 min before reading at 550 nm, RT. Standards are run in quadruplicate, blank (water) in duplicate, and samples in triplicate.\nBlood serum was obtained from animals of the experiment described in FIG. 3 and calcium level was measured."}, "C57/BL6 mice": {"tested_on": "C57/BL6 mice", "assay": "CLP (cecal ligation and puncture) mortality due to infection potentiation", "type": "in vivo, mouse", "details": "30 mg/kg IP on the day of surgery; ten mice per group; vs vehicle; FIG. 15", "description": "CLP (cecal ligation and puncture) was performed with 23G needle and 50-70% of cecal ligation. Compound Y 30 mg/kg was administered IP on the day of surgery. The mortality was checked twice a day. Ten C57/BL6 mice per group were used."}, "[2]": {"assay": "Serum calcemia after i.p. or i.p. plus oral Compound Y in CD1 mice (FIG. 5)", "type": "in vivo, mouse", "details": "different doses i.p., or i.p. plus oral for 3 days at MTD (3 ug/kg), 24 h after the last administration", "description": "as §1\nCD1 mice were used to test serum calcemia after different doses of Compound Y administered i.p. A second group of animals received both i.p. (different doses) and oral administration for 3 days at MTD (3 ug/kg). Serum calcemia was measured 24 h after the last administration."}, "[3]": {"tested_on": "New Zealand White rabbits", "assay": "Double uterine horn (DUH) rabbit model of post-surgical adhesions", "type": "in vivo", "description": "Animals: Twenty eight, female New Zealand White rabbits, 2.4-2.7 kg, were purchased from Irish Farms (Norco, Calif.) and quarantined for at least 2 days prior to use. Seven rabbits were randomized into four treatment groups prior to initiation of surgery. The rabbits were housed on a 12:12 light:dark cycle with food and water available ad libitum.\nDouble Uterine Horn Model: Rabbits were anesthetized with a mixture of 55 mg/kg ketamine hydrochloride and 5 mg/kg Rompum intramuscularly. Following preparation for sterile surgery, a midline laparotomy was performed. The uterine horns were exteriorized and traumatized by abrasion of the serosal surface with gauze until punctate bleeding developed. Ischemia of both uterine horns was induced by removal of the collateral blood supply. The remaining blood supply to the uterine horns was the ascending branches of the utero-vaginal arterial supply of the myometrium. Treated animals received 25 mL of either vehicle (lactated Ringers' solution with 0.1% Tween 20, 0.1% isopropyl alcohol), or vehicle with one of two doses of Compound Y (30 or 300 μg/kg). An additional group of animals received surgery only. The horns were then returned to their normal anatomic position and the midline sutured with 3-0 Vicryl. The animals were weighed before surgery and necropsy.\nAfter 7 days, the rabbits were terminated and the percentage of the area of the horns adherent to various organs determined.\nIn addition an overall score which took into account all of the above data was given to each rabbit. The following scoring system was used:\nThe rabbits were scored by two independent observers that were blinded to the prior treatment of the animal. If there was disagreement as to the score to be assigned to an individual animal, the higher score was given."}, "CPSS mouse model": {"tested_on": "CPSS mouse model", "assay": "CPSS (cecal peritoneal scraping and sewing) mouse model of post-surgical adhesion, dose response", "type": "in vivo", "details": "30-100-300 ug/kg i.p. at the end of surgery; sacrifice after two weeks; vs vehicle; FIG. 10", "description": "Different doses of Compound Y were tested in the CPSS (cecal peritoneal scraping and sewing) mouse model of post-surgical adhesion. Animals were treated with 30-100-300 ug/kg of Compound Y in […] of sterile saline with 0.1% Tween-20, 0.1% ethanol, i.p. at the end of surgery. Animals were sacrificed after two weeks and peritoneral adhesion evaluated. Means of in situ score of the four groups were compared and percentage of reduction of the mean in situ score of treated animals compared with vehicle group was considered."}, "3T3-L1 cells": {"tested_on": "3T3-L1 cells", "assay": "Fibrin clot lysis by mouse fibroblasts 3T3-L1", "type": "cell-based", "details": "cells incubated overnight with 10^-6 to 10^-9 M; normalized to untreated cells; FIG. 7", "description": "Confluent 3T3-L1 cells were incubated overnight with the following compounds: TGF-β1 5 ng/ml, Compound Y 10^−6, 10^−7, 10^−8 and 10^−9 M. After removing the supernatants, Fibrinolysis Buffer containing 3 μM fibrinogen and 100 nM plasminogen (“BM”) was added to each well. A fibrin clot was induced by adding 20 nM thrombin. Plates were incubated at 37° C. and clot density was determined by measuring optical density at 405 nm. Results were shown as relative fibrin clot density at different timepoints normalized to untreated cells."}, "[4]": {"tested_on": "Human mesothelial cells (LP9)", "assay": "tPA and PAI-1 production by ELISA in human mesothelial cells", "type": "cell-based", "details": "different doses; supernatants at 48 h; FIG. 8", "description": "Human mesothelial cells (LP9, Cornell University) were plated in a 96 well plate in the presence of different doses of Compound Y. Supernatants were harvested at 48 h and tPA and PAI-1 production was measured by ELISA. tPA/PAI-1 ratio was calculated. Statistical analysis was performed by ANOVA test."}, "[5]": {"assay": "Serum calcium levels in DUH rabbit model animals", "type": "in vivo", "details": "both doses; prior to surgery, 24 hours after surgery and prior to necropsy; FIG. 12", "description": "One ml of blood was drawn into red top tubes prior to surgery, 24 hours after surgery and prior to necropsy to allow the generation of serum to measure serum calcium levels. The blood was allowed to clot, the serum harvested by centrifugation and the serum calcium measured."}, "hairless mice": {"tested_on": "hairless mice", "assay": "Full thickness wound healing mouse model", "type": "in vivo", "details": "daily oral 3 mg/kg, 5 days a week, 5 hairless mice per group, vs vehicle, FIG. 13", "description": "One full thickness wound of 1 cm in diameter was marked using a template and the tissue was excised to the level of the panniculus carnosus using dissecting scissors and forceps. The wound healing was determined by drawing the wound margin with tracing film. The rate of wound healing is expressed as the percentage area remaining 5 hairless mice per group, daily oral treatment with 3 mg/kg of Compound Y, 5 days a week. Wound healing curve using the Boltzman equation and V50 (half time of wound healing) were calculated."}, "Human mesothelial cells": {"tested_on": "Human mesothelial cells", "assay": "VEGF and TGF-b production by ELISA in human mesothelial cells", "type": "cell-based", "details": "different doses; supernatants at 48 h; FIG. 14", "description": "Human mesothelial cells (Cornell Cell Repositories) were plated in a 96 well plate in the presence of different doses of Compound Y. Supernatants were harvested at 48 h and VEGF and TGF-b production was measured by ELISA. Total number of live cells were quantified by fluorimetric assay."}, "[6]": {"assay": "Intraperitoneal single administration, serum calcium levels", "type": "in vivo, mouse", "details": "female BALB/c mice, single i.p., FIG. 9"}}, "note": "Entries after “also recorded” stand apart in the source; their conditions may differ.", "data": [{"molecule": "C=C1/C(=C\\C=C2/CCC[C@]3(C)C([C@@H](C)C/C=C/C(O)(CC)CC)=CC[C@@H]23)C[C@@H](O)C[C@@H]1F", "note": "[Compound X, 1-alpha-fluoro-25-hydroxy-16,23E-diene-26,27-bishomo-20-epi-cholecalciferol]", "values": [{"measurement": "total adhesions score", "setting": "Balb/c mice; 200 ug/kg i.p. once four hours after surgery, then oral 100 ug/kg once a day for 4 days, FIG. 1", "value": "significantly reduces"}, {"measurement": "adhesion score / length (mm) of caecum adherent to peritoneum, difference to vehicle groups", "setting": "Balb/c mice", "value": "statistically significant"}, {"measurement": "serum calcium level", "setting": "[1]", "value": "slightly hypercalcemic"}]}, {"molecule": "CC(C)(O)CCCC(CCCC(C)(C)O)[C@H]1CC[C@H]2/C(=C/C=C3C[C@@H](O)C[C@H](O)C3)CCC[C@]12C", "note": "[Compound Y, 1,25-dihydroxy-21-(3-hydroxy-3-methylbutyl)-19-nor-cholecalciferol]", "values": [{"measurement": "mortality (survival curves, log rank test)", "setting": "C57/BL6 mice", "value": "no statistically significant difference"}, {"measurement": "serum calcemia", "setting": "[2]", "value": "no hypercalcemic effect"}, {"measurement": "adhesion formation (overall adhesion score)", "setting": "[3]; 30 or 300 ug/kg in 25 mL at surgery, 7 days, P<0.001 for both doses compared with both controls, FIG. 11", "value": "significantly reduced"}, {"measurement": "peritoneal inflammation, weight loss or hypercalcemia at necropsy", "setting": "[3]; 30 or 300 ug/kg, necropsy after 7 days", "value": "No peritoneal inflammation, weight loss or hypercalcemia were observed"}, {"measurement": "efficacy in preventing adhesion formation compared with prior studies of icodextrin", "setting": "[3]; DUH rabbit model, icodextrin data from Verco et al. 2000, FIG. 16", "value": "comparable efficacy"}, {"measurement": "efficacy in preventing adhesion formation compared with prior studies of lazaroids", "setting": "[3]; DUH rabbit model, lazaroid data from Rodgers et al. 1998, FIG. 17", "value": "comparable efficacy"}, {"measurement": "total adhesions score", "setting": "Balb/c mice; 6 ug/kg i.p. once four hours after surgery, then orally 3 ug/kg once a day for 4 days, FIG. 2", "value": "significantly reduces"}, {"measurement": "adhesion score / length (mm) of caecum adherent to peritoneum, difference to vehicle groups", "setting": "Balb/c mice", "value": "statistically significant"}, {"measurement": "cecal-peritoneal adhesion formation (mean in situ score)", "setting": "CPSS mouse model", "value": "reduces cecal-peritoneal adhesion formation in a dose dependent manner"}, {"measurement": "fibrin clot lysis (relative fibrin clot density, OD 405 nm)", "setting": "3T3-L1 cells", "value": "accelerates fibrin clot lysis by mouse fibroblasts in a dose dependent manner"}, {"measurement": "tPA/PAI-1 ratio", "setting": "[4]", "value": "increased"}, {"measurement": "serum calcium (signs of hypercalcemia)", "setting": "[5]", "value": "No signs of hypercalcemia"}, {"measurement": "wound healing (percentage wound area remaining, healing curve, V50)", "setting": "hairless mice", "value": "No statistically significant difference; also recorded: does not delay wound healing"}, {"measurement": "TGF-b production", "setting": "Human mesothelial cells", "value": "does not affect"}, {"measurement": "VEGF production", "setting": "Human mesothelial cells", "value": "does not affect"}, {"measurement": "serum calcemia", "setting": "[6]; high dosage (300 mg/kg)", "value": "Transient hypercalcemia"}]}, {"molecule": "C=C1/C(=C\\C=C2/CCC[C@]3(C)[C@@H]([C@H](C)CCCC(C)(C)O)CC[C@@H]23)C[C@@H](O)C[C@@H]1O", "note": "[calcitriol, reference compound]", "values": [{"measurement": "adhesion score / length (mm) of caecum adherent to peritoneum, difference to vehicle groups", "setting": "Balb/c mice", "value": "statistically significant"}, {"measurement": "serum calcemia", "setting": "[6]; 16 and 24 hours after administration", "value": "more pronounced and sustained hypercalcemia"}]}, {"molecule": "CCNC(=O)[C@@H]1CCCN1C(=O)[C@H](CCCNC(=N)N)NC(=O)[C@H](CC(C)C)NC(=O)[C@@H](CC(C)C)NC(=O)[C@H](Cc1ccc(O)cc1)NC(=O)[C@H](CO)NC(=O)[C@H](Cc1c[nH]c2ccccc12)NC(=O)[C@H](Cc1c[nH]cn1)NC(=O)[C@@H]1CCC(=O)N1", "note": "[leuprolide acetate, reference compound]", "values": [{"measurement": "total adhesion score", "setting": "Balb/c mice; 1 mg/kg injected one week before surgery, sacrifice day 7, model validation, FIG. 6", "value": "statistically significant reduction"}]}]}
